# Test results from US8759323B2, “Protein phosphatase inhibitor” (LSIP, LLC, priority 2008, dated 2014).
# Like-named read-outs stand apart in the source and are kept apart here.
# What was measured:
# Assay type in all cases: biochemical
# [1] = biological target: T1, PPM1D protein catalytic domain (positions 1 to 420), His tag fusion (Homo sapiens, UniProt O15297); experiment: PPM1D-inhibitory activity, single concentration (Test Example 1, BIOMOL GREEN free phosphate); design: dose or concentration left out as unconfirmed; settings: read-out: Rate of PPM1D inhibition (: %)
# T1 construct: the catalytic domain (the positions 1 to 420) of PPM1D protein; His tag; made in house; host or cells: E. coli (pColdI vector)
# T1 sequence (O15297 1-420): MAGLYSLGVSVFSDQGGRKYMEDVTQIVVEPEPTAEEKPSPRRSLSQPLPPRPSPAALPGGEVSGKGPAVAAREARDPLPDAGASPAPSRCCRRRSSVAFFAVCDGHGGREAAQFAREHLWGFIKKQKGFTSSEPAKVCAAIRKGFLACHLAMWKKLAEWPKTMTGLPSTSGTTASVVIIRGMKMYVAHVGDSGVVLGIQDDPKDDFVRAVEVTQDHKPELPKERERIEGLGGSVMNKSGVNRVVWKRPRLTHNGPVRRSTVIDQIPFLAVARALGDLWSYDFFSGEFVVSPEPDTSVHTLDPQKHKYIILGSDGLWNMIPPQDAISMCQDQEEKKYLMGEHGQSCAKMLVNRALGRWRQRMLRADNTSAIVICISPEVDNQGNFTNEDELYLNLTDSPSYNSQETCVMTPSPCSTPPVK
# Method: The PPM1D-inhibitory activity of the compound of the present invention (1) was measured.
# Into a pColdI vector (TaKaRa Bio Inc.), cDNA encoding the catalytic domain (the positions 1 to 420) of PPM1D protein (Protein ID: O15297/cDNA ID: U70385) was introduced, and the PPM1D protein was expressed in E. coli as a His tag fusion protein. The protein of interest was purified by metal affinity chromatography with BD-TALON resin (CLONTECH), and then eluted with an elution buffer (150 mM imidazole, PBS (pH 7.5), 500 mM NaCl, 10% glycerol, 0.2% ethanol, and 1 mM 2-mercaptoethanol). The PPM1D protein thus eluted was dialyzed against a dialysis buffer (50 mM Tris-HCl (pH 7.5), 0.1 mM EGTA, and 0.02% 2-mercaptoethanol) for 16 hours, and then stored at −80° C. as a 50% glycerol stock (an enzyme concentration of 1 μM).
# The enzyme that was expressed and purified by the aforementioned method was used for analysis of the inhibitory effect of the compound on PPM1D. […] A purified phospho-p53 peptide was dissolved in H2O to prepare a 400 μM original substrate solution. The test compound of Example 1 (inhibitor) was dissolved in ethanol (EtOH) to a concentration of 40 mM, and then diluted with dimethyl sulfoxide (DMSO) to adjust an original inhibitor solution with a concentration of 4 mM in advance. Other inhibitors were dissolved in dimethyl sulfoxide (DMSO) to prepare original inhibitor solutions with a concentration of 4 mM. 30 μL of a mixed solution of the inhibitor and the substrate (66.7 μM phosphorylated peptide substrate, […], 1.7% DMSO (in the case of Example 1, 1.5% DMSO and 0.2% EtOH), and 13 mM Tris-HCl (pH 8.0)) was kept warm at 30° C., to which 20 μL of a mixed solution of an enzyme and a metal ion kept at 4° C. (10 nM PPM1D, 125 mM Tris-HCl (pH 7.5), 0.25 mM EGTA, 0.05% 2-mercaptoethanol, and 75 mM MgCl2) was added. The resulting mixture was incubated at 30° C. for 10 minutes, and then the inhibitory activity on PPM1D was measured. The enzyme reaction was terminated with addition of 100 μL of a BIOMOL GREEN reagent (Biomol), and 30 minutes later, the absorbance at 620 nm was measured to detect phosphoric acid freed by PPM1D. The inhibitory effect on PPM1D was analyzed by measuring, from the absorbance measured at 620 nm, the amount of free phosphoric acid reduced due to the addition of the inhibitor with respect to the amount of free phosphoric acid in the case of addition of DMSO not including the inhibitor.
# [2] = biological target: T2, PPM1D (Homo sapiens, UniProt O15297); experiment: PPM1D IC50, inhibition constant (Ki) and selectivity (Test Example 2); settings: for Ki: PPM1D, phospho-p53 (Ser 15) peptide analog substrate 5-40 μM; for IC50: inhibitor 0-40 μM, measured three times
# T2 construct: the catalytic domain (the positions 1 to 420) of PPM1D protein; His tag; made in house; host or cells: E. coli (pColdI vector)
# T2 sequence (O15297 1-420): T1 sequence (O15297 1-420)
# Method: (§1) The inhibitory activity on PPM1A, PP2A, and PPM1D at each final concentration of the inhibitor (0, 0.1, 0.2, 0.4, 1, 2, 4, 10, or 40 μM) was measured three times with respect to each concentration, and the concentration of the inhibitor required for 50% inhibition of the enzyme activity (IC50) was determined.
# The original inhibitor solution was diluted with a solvent (DMSO, (for the test compound of Example 1, 90% DMSO and 10% EtOH)) to prepare each concentration of an inhibitor solution.
# Other conditions for measurement of the enzyme activity are the same as those in Test Example 1.
# The enzyme selectivity of the inhibitor was analyzed by comparing the IC50 values of the inhibitor on PPM1D, PPM1A, and PP2A.
# Also, the inhibition constant of the inhibitor (Ki) and the inhibition pattern were measured as follows.
# As a substrate, a phospho-p53 (Ser 15) peptide analog (Ac-Val-Glu-Pro-Pro-Leu-Ser(P)-[…]NH2: Ser(P) indicates phosphorylated Ser) was used. 30 μL of a mixed solution of the inhibitor and the substrate (each concentration of the phosphorylated peptide substrate, each concentration of the inhibitor, 1.7% DMSO (in the case of Example 1, 1.5% DMSO and 0.2% EtOH), and 13 mM Tris-HCl (pH 8.0)) was kept warm at 30° C., to which 20 μL of a mixed solution of an enzyme and a metal ion kept at 4° C. (10 nM PPM1D, 125 mM Tris-HCl (pH 7.5), 0.25 mM EGTA, 0.05% 2-mercaptoethanol, and 75 mM MgCl2) was added. The resulting mixture was incubated at 30° C. for 10 minutes, and then the inhibitory activity on PPM1D was measured.
# The activity on PPM1D was measured at each concentration of the phosphorylated peptide substrate (5, 10, 20, and 40 μM), and at each final concentration of the inhibitor (0, 0.3, 0.4, and 0.6 μM (the compound of Example 1 [Compound 1]) or 0, 0.4, and 1.2 μM (the compound of Example 5 [Compound 2]). The enzyme reaction was terminated with addition of 50 μL of a BIOMOL GREEN reagent (Biomol) to a reaction solution, and 30 minutes later, the absorbance at 620 nm was measured to detect phosphoric acid freed by PPM1D.
# Based on the results thus obtained, Ki (μM) was calculated.
# [3] = biological target: T3, full length PPM1A (382 residues) (Homo sapiens, UniProt P35813); experiment: PPM1A inhibitory activity (Test Example 2); settings: 16 nM PPM1A, phospho-p38 peptide analog substrate, MnCl2
# T3 construct: cDNA encoding full length PPM1A (382 residues); His tag (inferred: same pColdI vector, purified like His-PPM1D); made in house; host or cells: E. coli (pColdI vector)
# T3 sequence (P35813 1-382): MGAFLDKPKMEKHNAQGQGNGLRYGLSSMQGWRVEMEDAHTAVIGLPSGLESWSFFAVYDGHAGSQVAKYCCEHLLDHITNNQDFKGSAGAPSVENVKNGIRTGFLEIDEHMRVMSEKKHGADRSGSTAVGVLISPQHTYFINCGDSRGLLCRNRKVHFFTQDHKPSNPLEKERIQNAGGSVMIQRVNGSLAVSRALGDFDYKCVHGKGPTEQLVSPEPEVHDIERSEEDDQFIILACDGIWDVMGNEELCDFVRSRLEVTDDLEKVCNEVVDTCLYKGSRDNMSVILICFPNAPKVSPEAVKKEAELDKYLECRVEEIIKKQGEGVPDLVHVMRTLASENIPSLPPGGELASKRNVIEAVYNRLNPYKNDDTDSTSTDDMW
# Method: In order to analyze the enzyme selectivity of the inhibitor, the inhibitory effect on PPM1A, which belongs to the PPM1 family as PPM1D does, was analyzed and compared with the inhibitory effect on PPM1D. Into a pColdI vector, cDNA encoding full length PPM1A (382 residues) (Protein ID: P35813/cDNA ID: S87759) was introduced, and the PPM1A was expressed in E. coli and then purified similarly to PPM1D. The inhibitory activity on 16 nM purified PPM1A was measured. As a substrate of PPM1A, a phospho-p38 peptide analog (Ac-Asp-Asp-Glu-Nle-Thr(P)-Gly-Tyr(P)-Val-Ala-Thr-Arg-NH2: Thr(P), Tyr(P), and Nle indicate phosphorylated Thr, phosphorylated Tyr, and norleucine, respectively) was used.
# 30 μL of a mixed solution of the inhibitor and the substrate (66.7 μM phosphorylated peptide substrate, each concentration of the inhibitor, 1.7% DMSO (for the test compound of Example 1, 1.5% DMSO and 0.2% EtOH), and 13 mM Tris-HCl (pH 8.0)) was kept warm at 30° C., to which 20 μL of a mixed solution of an enzyme and a metal ion kept at 4° C. (40 nM PPM1A, 125 mM Tris-HCl (pH 7.5), 0.25 mM EGTA, 0.05% 2-mercaptoethanol, and 25 mM MnCl2) was added. The resulting mixture was incubated at 30° C. for 10 minutes, and then the inhibitory activity on PPM1A was measured. […]
# [4] = biological target: T4, PP2A (Homo sapiens, UniProt P67775); experiment: PP2A inhibitory activity (Test Example 2); settings: with addition of 40 μM inhibitor
# T4 construct: purchased Promega K.K
# Method: Also, in order to analyze the enzyme selectivity of the inhibitor within the Ser/Thr phosphatase family, the inhibitory effect on PP2A (Protein ID: P67775/cDNA ID: X12649), which belongs to the PPP family, was analyzed. PP2A was purchased from Promega K.K. As a substrate of PP2A, a phospho-p38 peptide analog (Ac-Thr-Asp-Asp-Glu-Met-Thr(P)-Gly-Tyr-Val-Ala-Thr-NH2: Thr(P) indicates phosphorylated Thr) was used. 30 μL of a mixed solution of the inhibitor and the substrate (333.3 μM phosphorylated peptide substrate, each concentration of the inhibitor, 1.7% DMSO (in the case of Example 1, 1.5% DMSO and 0.2% EtOH), and 13 mM Tris-HCl (pH 8.0)) was kept warm at 30° C., to which 20 μL of a mixed solution of an enzyme and a metal ion kept at 4° C. (25 mU PP2A, 125 mM Tris-HCl (pH 7.5), 0.25 mM EGTA, 0.05% 2-mercaptoethanol, and 75 mM MgCl2) was added. The resulting mixture was incubated at 30° C. for 10 minutes, and then the inhibitory activity on PP2A was measured.
# as §1, with “determined. […]” for “determined.”
# [5] = phospho-p53 (Ser 15) peptide substrate, 30° C., 10 minutes, read-out: Rate of PPM1D inhibition (%)
# T4 sequence (P67775 whole entry): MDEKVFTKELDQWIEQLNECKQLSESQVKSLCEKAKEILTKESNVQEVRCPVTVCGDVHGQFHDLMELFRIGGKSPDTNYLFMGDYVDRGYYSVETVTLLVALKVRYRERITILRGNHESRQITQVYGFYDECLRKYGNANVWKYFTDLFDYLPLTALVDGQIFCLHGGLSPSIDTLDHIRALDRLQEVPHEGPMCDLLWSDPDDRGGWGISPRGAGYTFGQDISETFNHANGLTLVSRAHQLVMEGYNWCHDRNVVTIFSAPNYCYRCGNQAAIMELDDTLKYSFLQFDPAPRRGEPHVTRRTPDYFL
# T4 sequence (P30153 2-589 partner limits assumed): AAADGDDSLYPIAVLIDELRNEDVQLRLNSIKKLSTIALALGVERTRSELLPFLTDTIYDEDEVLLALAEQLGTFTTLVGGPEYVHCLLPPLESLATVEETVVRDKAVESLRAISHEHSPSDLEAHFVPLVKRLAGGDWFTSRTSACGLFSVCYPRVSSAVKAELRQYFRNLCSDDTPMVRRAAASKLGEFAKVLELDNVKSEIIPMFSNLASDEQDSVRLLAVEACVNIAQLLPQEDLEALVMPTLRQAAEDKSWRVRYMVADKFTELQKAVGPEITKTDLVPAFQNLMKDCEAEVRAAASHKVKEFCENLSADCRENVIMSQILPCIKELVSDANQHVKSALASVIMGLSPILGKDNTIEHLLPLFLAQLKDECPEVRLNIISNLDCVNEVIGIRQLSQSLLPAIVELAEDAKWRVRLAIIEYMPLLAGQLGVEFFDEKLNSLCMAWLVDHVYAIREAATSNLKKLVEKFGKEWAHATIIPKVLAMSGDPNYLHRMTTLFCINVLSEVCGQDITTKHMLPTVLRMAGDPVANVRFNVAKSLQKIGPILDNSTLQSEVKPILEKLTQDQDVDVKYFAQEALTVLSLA
Structure (SMILES),"inhibition [1, 5] [%]",inhibition [1] [%],other results
CC[Si](CC)(CC)O[C@@H]1C[C@H](C)C[C@@H]2[C@@H]1C[C@H](O[Si](C)(C)C(C)(C)C)[C@@H]1[C@](C)(CO)C[C@H](O)C[C@@]21C [Example 1],97.1 ± 2.49,–,Ki [2]: 0.59 ± 0.05 µM; IC50 [2]: 0.43 ± 0.04 µM; IC50 [3]: 21 ± 1.7 µM; inhibition at 40 µM [4]: 11%
CC(C)[Si](OCCCC#CCO)(C(C)C)C(C)C [Example 10],–,35.4 ± 2.18,–
C[C@H]1C[C@@H](O)[C@H]2C[C@H](O[Si](C)(C)C(C)(C)C)[C@@H]3[C@](C)(CO)C[C@H](O)C[C@@]3(C)[C@@H]2C1 [Example 4],–,25.1,–
CSC(C)(CO[Si](C(C)C)(C(C)C)C(C)C)S(=O)(=O)c1ccc(C)cc1 (stereo not shown) [Example 11],–,33.7 ± 4.78,–

# Continued, in another order:
"inhibition [1, 5] [%]",Structure (SMILES),inhibition [1] [%],other results
0,"C=C1C2(/C=C/CO)CC[C@@]1(C)C2(C)C [Comparative Example 4, reference compound]",–,–
92.7 ± 1.4,CCOC(=O)C=CC12CCC(C)(C1CO[Si](C(C)C)(C(C)C)C(C)C)C2(C)C (stereo not shown) [Example 5],–,Ki [2]: 2.6 ± 0.1 µM; IC50 [2]: 0.93 ± 0.04 µM; IC50 [3]: 28 ± 4.2 µM; inhibition at 40 µM [4]: 14%
0,"CCOC(=O)/C=C/C12CC[C@](C)([C@@H]1CO)C2(C)C [Comparative Example 3, reference compound]",–,–
0,"COC(=O)[C@]1(C)CC(=O)C[C@]2(C)[C@@H]3C[C@@H](C)C[C@@H](OC(C)=O)[C@H]3CC(=O)[C@H]21 [Comparative Example 2, reference compound]",–,–
